Data on 37 compounds can be found in patent publication US8436031B2 (priority 2004, dated 2013).

Chain of MarA (P0ACH5 whole entry, looked up): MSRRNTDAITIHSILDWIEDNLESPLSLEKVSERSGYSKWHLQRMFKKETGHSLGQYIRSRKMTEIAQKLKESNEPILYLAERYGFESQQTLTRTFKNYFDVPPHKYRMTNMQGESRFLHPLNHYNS

The assay addresses MarA (Escherichia coli, UniProt P0ACH5). In words: Selective marker (ccdB) under MarA-activated promoter; cell survival under MarA expression (Example 2). On the set-up: key: *: good inhibition of MarA; **: very good inhibition of MarA. As to conditions: inhibition of MarA; cell survival under conditions of MarA expression. The assay is classed as cell-based. An excerpt: In this example, the expression of a selective marker (e.g., ccdB) is put under the direct control of a promoter activated by MarA (e.g., inaA, galT, or micF). In the absence of MarA, the expression of the selective marker is silent and cells survive. Synthesis of MarA from an inducible plasmid in a bacterial or yeast cell leads to the activation of the inaA promoter, expression of ccdB, and subsequently results in cell death. Compounds that inhibit MarA are those that permit cell survival under conditions of MarA expression. In Table 4, * indicates good inhibition of MarA and ** indicates very good inhibition of MarA.
For the compound `CSc1nnc2c(n1)OC(c1ccc(I)o1)Nc1ccccc1-2` (stereo not shown) [A, 6-(5-Iodo-furan-2-yl)-3-methylsulfanyl-6,7-dihydro-5-oxa-1,2,4,7-tetraaza-dibenzo[a,c]cycloheptene], the “MarA inhibition score (cell survival)” value was “**”.
Then `N#Cc1c(-c2ccc3c(c2)OCO3)c(C#N)c2nc3ccccc3n2c1N` [AB, 1-Amino-3-benzo[1,3]dioxol-5-yl-benzo[4,5]imidazo[1,2-a]pyridine-2,4-dicarbonitrile], with “**”; and `COC(=O)c1ccccc1NC(=O)CSc1nnc(-c2ccco2)n1-c1ccccc1` [AC, 2-[2-(5-Furan-2-yl-4-phenyl-4H-[1,2,4]triazol-3-ylsulfanyl)-acetylamino]-benzoic acid methyl ester], with “*”; and `CSc1cccc(NC(=O)CSc2nnc(-c3ccc4nonc4c3)n2C)c1` [AE, 2-(5-Benzo[1,2,5]oxadiazol-5-yl-4-methyl-4H-[1,2,4]triazol-3-ylsulfanyl)-N-(3-methylsulfanyl-phenyl)-acetamide], with “*”.
Then `O=C1C(=C2NC(c3ccccn3)C3C(=O)N(c4ccccc4)C(=O)C23)C(=O)c2ccccc21` (stereo not shown) [AF, 4-(1,3-Dioxo-indan-2-ylidene)-2-phenyl-6-pyridin-2-yl-tetrahydro-pyrrolo[3,4-c]pyrrole-1,3-dione], with “**”; and `O=[N+]([O-])c1ccc2nc(-c3ccccc3)n(OCc3cccc(C(F)(F)F)c3)c2c1` [AG, 6-Nitro-2-phenyl-1-(3-trifluoromethyl-benzyloxy)-1H-benzoimidazole], with “**”.
Take `O=C(O)COn1c(-c2ccccc2)nc2ccc([N+](=O)[O-])cc21` [AH, (6-Nitro-2-phenyl-benzoimidazol-1-yloxy)-acetic acid]: the “MarA inhibition score (cell survival)” value is “**”.
Then `O=[N+]([O-])c1ccc2nc(-c3ccccc3)n(OCc3ccccc3)c2c1` [AI, 1-Benzyloxy-6-nitro-2-phenyl-1H-benzoimidazole], with “**”.
For `Cc1ccc(COn2c(-c3ccccc3)nc3ccc([N+](=O)[O-])cc32)cc1` [AJ, 1-(4-Methyl-benzyloxy)-6-nitro-2-phenyl-1H-benzoimidazole], the “MarA inhibition score (cell survival)” value is “*”.
Then `Cn1c(=O)c2c3oc(-c4ccc([N+](=O)[O-])cc4)nc3c(=O)n(-c3ccccc3)c2n(C)c1=O` [AK, 6,8-Dimethyl-2-(4-nitro-phenyl)-5-phenyl-5H,6H-1-oxa-3,5,6,8-tetraaza-cyclopenta[a]naphthalene-4,7,9-trione], with “**”; and `Cc1ccc(-c2nc3c(=O)n(-c4ccccc4)c4c(c(=O)n(C)c(=O)n4C)c3o2)cc1` [AL, 6,8-Dimethyl-5-phenyl-2-p-tolyl-5H,6H-1-oxa-3,5,6,8-tetraaza-cyclopenta[a]naphthalene-4,7,9-trione], with “*”; and `O=c1/c(=C/c2cn(-c3ccccc3)nc2-c2ccc(F)cc2)sc2nc3ccccc3n12` [AM, 2-[3-(4-Fluoro-phenyl)-1-phenyl-1H-pyrazol-4-ylmethylene]-benzo[4,5]imidazo[2,1-b]thiazol-3-one], with “**”.
Regarding `C=Cc1nc2s/c(=C\c3cn(-c4ccccc4)nc3-c3ccc(F)cc3)c(=O)n2c1C` [AO, 2-[3-(4-Fluoro-phenyl)-1-phenyl-1H-pyrazol-4-ylmethylene]-5-methyl-6-vinyl-imidazo[2,1-b]thiazol-3-one], the “MarA inhibition score (cell survival)” value is recorded as “**”.
For the compound `CN(C)c1ccc(-c2cc(=O)c3ccccc3o2)cc1` [AW, 2-[4-(dimethylamino)phenyl]-4H-chromen-4-one], the “MarA inhibition score (cell survival)” value was “**”.
With `c1ccc(COn2c(-c3ccccc3)nc3ncccc32)cc1` [AX, 1-(benzyloxy)-2-phenyl-1H-imidazo[4,5-b]pyridine], the “MarA inhibition score (cell survival)” value is reported as “**”.
Then `c1ccc(CSc2ncc(-c3nnnn3-c3ccccc3)c(-c3ccccc3)n2)cc1` [AY, 2-(benzylthio)-4-phenyl-5-(1-phenyl-1H-1,2,3,4-tetraazol-5-yl)pyrimidine], with “**”; and `O=c1cc(-c2ccccc2)oc2ccc(F)cc12` [AZ, 6-fluoro-2-phenyl-4H-chromen-4-one], with “**”.
Then `CCOc1ccc(C2Nc3ccccc3-c3nnc(SC)nc3O2)cc1` (stereo not shown) [B, 6-(4-Ethoxy-phenyl)-3-methylsulfanyl-6,7-dihydro-5-oxa-1,2,4,7-tetraaza-dibenzo[a,c]cycloheptene], with “*”; and `COc1ccc2c(=O)cc(-c3ccccc3)oc2c1` [BA, 7-methoxy-2-phenyl-4H-chromen-4-one], with “*”; and `O=C1C(=C2NC(c3ccccn3)C3C(=O)N(c4ccccc4)C(=O)C23)C(=O)c2ccccc21` (stereo not shown) [BB, 4-(1,3-dioxo-1,3-dihydro-2H-inden-2-yliden)-2-phenyl-6-(2-pyridinyl)tetrahydro pyrrolo[3,4-c]pyrrole-1,3(2H,3aH)-dione], with “*”.
Then `CCOC(=O)C(C(N)=O)C1(O)OC(c2ccc(C)cc2)=CC1=O` (stereo not shown) [BC, 2-(2-Hydroxy-3-oxo-5-p-tolyl-2,3-dihydro-furan-2-yl)-malonamic acid ethyl ester], with “*”; and `O=C(O)COn1c(-c2ccccc2)nc2ccc([N+](=O)[O-])cc21` [BD, 2-[(6-nitro-2-phenyl-1H-1,3-benzimidazol-1-yl)oxy]acetic acid], with “*”.
For `O=c1cc(-c2ccc(F)cc2)oc2ccccc12` [BE, 2-(4-fluorophenyl)-4H-chromen-4-one], the “MarA inhibition score (cell survival)” value is “*”.
As to `COn1c(-c2ccc(C)cc2)nc2ncccc21` [BF, 1-methoxy-2-(4-methylphenyl)-1H-imidazo[4,5-b]pyridine], the “MarA inhibition score (cell survival)” value is “*”.
Then `O=c1cc(-c2ccc(O)cc2)oc2ccccc12` [BG, 2-(4-hydroxyphenyl)-4H-chromen-4-one], with “*”; and `CSc1nnc2c(n1)OC(c1ccc([N+](=O)[O-])o1)Nc1ccccc1-2` (stereo not shown) [C, 3-Methylsulfanyl-6-(5-nitro-furan-2-yl)-6,7-dihydro-5-oxa-1,2,4,7-tetraaza-dibenzo[a,c]cycloheptene], with “*”.
On to `CSc1nnc2c(n1)OC(c1ccc(-c3ccc([N+](=O)[O-])cc3)o1)Nc1ccccc1-2` (stereo not shown) [D, 3-Methylsulfanyl-6-[5-(4-nitro-phenyl)-furan-2-yl]-6,7-dihydro-5-oxa-1,2,4,7-tetraaza-dibenzo[a,c]cycloheptene], for which the “MarA inhibition score (cell survival)” value was “*”.
As to `CCSc1nnc2c(n1)OC(c1ccc(O)c(O)c1)Nc1ccccc1-2` (stereo not shown) [E, 4-(3-Ethylsulfanyl-6,7-dihydro-5-oxa-1,2,4,7-tetraaza-dibenzo[a,c]cyclo-hepten-6-yl)-benzene-1,2-diol], the “MarA inhibition score (cell survival)” value was “*”.
Then `CCCSc1nnc2c(n1)OC(c1ccc(OCc3ccccc3)cc1)Nc1ccccc1-2` (stereo not shown) [F, 6-(4-Benzyloxy-phenyl)-3-propylsulfanyl-6,7-dihydro-5-oxa-1,2,4,7-tetraaza-dibenzo[a,c]cycloheptene], with “**”; and `CCCCSc1nnc2c(n1)OC(c1ccc(OC)cc1OC)Nc1ccccc1-2` (stereo not shown) [H, 3-Butylsulfanyl-6-(2,4-dimethoxy-phenyl)-6,7-dihydro-5-oxa-1,2,4,7-tetraaza-dibenzo[a,c]cycloheptene], with “*”.
Then `C=CCOc1ccc(C2Nc3ccccc3-c3nnc(SCCCC)nc3O2)cc1` (stereo not shown) [I, 6-(4-Allyloxy-phenyl)-3-butylsulfanyl-6,7-dihydro-5-oxa-1,2,4,7-tetraaza-dibenzo[a,c]cycloheptene], with “**”.
As to `CCCCSc1nnc2c(n1)OC(c1ccc(OCC)cc1)Nc1ccccc1-2` (stereo not shown) [J, 3-Butylsulfanyl-6-(4-ethoxy-phenyl)-6,7-dihydro-5-oxa-1,2,4,7-tetraaza-dibenzo[a,c]cycloheptene], the “MarA inhibition score (cell survival)” value is on record as “*”.
Then `CCCSc1nnc2c(n1)OC(c1ccc(OC)cc1)Nc1ccccc1-2` (stereo not shown) [K, 6-(4-Methoxy-phenyl)-3-propylsulfanyl-6,7-dihydro-5-oxa-1,2,4,7-tetraaza-dibenzo[a,c]cycloheptene], with “*”; and `CCCSc1nnc2c(n1)OC(c1ccc(-c3cccc([N+](=O)[O-])c3)o1)Nc1ccccc1-2` (stereo not shown) [L, 6-[5-(3-Nitro-phenyl)-furan-2-yl]-3-propylsulfanyl-6,7-dihydro-5-oxa-1,2,4,7-tetraaza-dibenzo[a,c]cycloheptene], with “**”.
As to `O=c1/c(=C/c2c[nH]nc2-c2ccccc2)sc2nc3ccccc3n12` [M, 2-(3-Phenyl-1H-pyrazol-4-ylmethylene)-benzo[4,5]imidazo[2,1-b]thiazol-3-one], the “MarA inhibition score (cell survival)” value was “**”.
Then `CCOC(=O)C1=C(C)N=c2s/c(=C\c3ccc(-c4cccc(C(=O)O)c4)o3)c(=O)n2C1c1c(OC)ccc2ccccc12` (stereo not shown) [N, 2-[5-(3-Carboxy-phenyl)-furan-2-ylmethylene]-5-(2-methoxy-naphthalen-1-yl)-7-methyl-3-oxo-2,3-dihydro-5H-thiazolo[3,2-a]pyrimidine-6-carboxylic acid ethyl ester], with “**”.
For `CCOC(=O)C1=C(C)N=c2sc(=Cc3ccc(-c4ccc([N+](=O)[O-])cc4C)o3)c(=O)n2C1c1ccc2c(c1)OCO2` (stereo not shown) [P, 5-Benzo[1,3]dioxol-5-yl-7-methyl-2-[5-(2-methyl-4-nitro-phenyl)-furan-2-ylmethylene]-3-oxo-2,3-dihydro-5H-thiazolo[3,2-a]pyrimidine-6-carboxylic acid ethyl ester], the “MarA inhibition score (cell survival)” value is listed as “*”.
